Test results as given in BindingDB's records for doi:10.1124/jpet.104.078303 (Abbott Laboratories, 2005).
Several values for one entry are separate records, joined by “and”; a condition that tells them apart may be missing. Equal entries are not always repeated.

Legend:
Histamine H3 receptor [1] = target: Histamine H3 receptor (Homo sapiens, UniProt Q9Y5N1)
Histamine H4 receptor = Histamine H4 receptor (Homo sapiens, UniProt Q9H3N8)
Histamine H1 receptor = Histamine H1 receptor (Homo sapiens, UniProt P35367)
Histamine H2 receptor = Histamine H2 receptor (Homo sapiens, UniProt P25021)
Histamine receptor H3 = Histamine receptor H3 (Canis lupus familiaris, UniProt Q865E3)
Histamine H3 receptor [2] = target: Histamine H3 receptor (Cavia porcellus, UniProt Q9JI35)
Hrh3 protein = Hrh3 protein (Rattus norvegicus, UniProt Q5PPG3)
Chain of Hrh3 protein (Q5PPG3 whole entry): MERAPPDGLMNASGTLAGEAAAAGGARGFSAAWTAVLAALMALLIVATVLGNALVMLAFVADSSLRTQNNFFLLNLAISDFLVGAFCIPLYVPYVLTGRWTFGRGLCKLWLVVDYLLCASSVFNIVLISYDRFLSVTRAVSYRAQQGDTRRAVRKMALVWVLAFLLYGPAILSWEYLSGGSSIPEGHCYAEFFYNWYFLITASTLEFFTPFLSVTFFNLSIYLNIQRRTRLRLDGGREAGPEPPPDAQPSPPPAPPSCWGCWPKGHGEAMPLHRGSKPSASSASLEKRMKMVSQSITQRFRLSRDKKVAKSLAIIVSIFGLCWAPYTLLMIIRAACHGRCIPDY

Chain of Histamine receptor H3 (Q865E3 whole entry): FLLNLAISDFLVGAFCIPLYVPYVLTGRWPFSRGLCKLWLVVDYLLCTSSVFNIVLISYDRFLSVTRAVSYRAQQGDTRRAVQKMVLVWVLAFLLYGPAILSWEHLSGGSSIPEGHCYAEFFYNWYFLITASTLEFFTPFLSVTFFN
Chain of Histamine H3 receptor (Homo sapiens, UniProt Q9Y5N1) (Q9Y5N1 whole entry): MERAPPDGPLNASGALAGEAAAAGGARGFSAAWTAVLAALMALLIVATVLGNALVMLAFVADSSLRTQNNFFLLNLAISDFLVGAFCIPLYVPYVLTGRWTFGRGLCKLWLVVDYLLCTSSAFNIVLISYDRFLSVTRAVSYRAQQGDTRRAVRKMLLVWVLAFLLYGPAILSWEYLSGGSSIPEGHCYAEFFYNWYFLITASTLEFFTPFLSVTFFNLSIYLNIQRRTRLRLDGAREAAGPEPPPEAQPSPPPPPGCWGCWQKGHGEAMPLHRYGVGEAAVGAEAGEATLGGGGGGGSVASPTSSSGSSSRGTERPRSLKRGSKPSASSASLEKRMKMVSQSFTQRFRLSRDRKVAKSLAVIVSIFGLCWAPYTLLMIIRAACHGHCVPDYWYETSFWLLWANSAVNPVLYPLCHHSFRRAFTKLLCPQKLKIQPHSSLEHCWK
Chain of Histamine H2 receptor (P25021 whole entry): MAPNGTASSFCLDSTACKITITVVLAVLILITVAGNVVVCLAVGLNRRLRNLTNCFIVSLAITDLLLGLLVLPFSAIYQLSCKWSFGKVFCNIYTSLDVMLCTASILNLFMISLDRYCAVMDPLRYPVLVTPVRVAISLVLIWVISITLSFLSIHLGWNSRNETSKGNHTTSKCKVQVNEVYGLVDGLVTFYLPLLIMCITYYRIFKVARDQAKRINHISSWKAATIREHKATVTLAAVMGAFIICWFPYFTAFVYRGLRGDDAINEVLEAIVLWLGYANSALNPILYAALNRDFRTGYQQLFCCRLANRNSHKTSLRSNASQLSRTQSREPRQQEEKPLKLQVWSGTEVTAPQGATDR
Chain of Histamine H1 receptor (P35367 whole entry): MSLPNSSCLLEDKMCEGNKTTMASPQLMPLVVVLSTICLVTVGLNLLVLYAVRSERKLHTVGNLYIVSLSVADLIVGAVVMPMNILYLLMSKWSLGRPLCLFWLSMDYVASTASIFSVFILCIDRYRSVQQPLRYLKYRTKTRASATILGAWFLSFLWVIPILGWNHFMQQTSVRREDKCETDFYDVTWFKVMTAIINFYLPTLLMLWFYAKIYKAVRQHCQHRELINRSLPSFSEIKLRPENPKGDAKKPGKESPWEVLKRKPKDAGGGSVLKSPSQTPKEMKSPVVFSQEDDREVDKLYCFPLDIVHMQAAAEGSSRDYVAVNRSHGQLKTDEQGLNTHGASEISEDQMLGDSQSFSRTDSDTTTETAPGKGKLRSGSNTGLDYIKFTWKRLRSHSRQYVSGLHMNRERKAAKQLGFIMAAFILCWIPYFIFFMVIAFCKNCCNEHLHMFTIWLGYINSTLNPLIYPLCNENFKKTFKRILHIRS
Chain of Histamine H3 receptor (Cavia porcellus, UniProt Q9JI35) (Q9JI35 whole entry): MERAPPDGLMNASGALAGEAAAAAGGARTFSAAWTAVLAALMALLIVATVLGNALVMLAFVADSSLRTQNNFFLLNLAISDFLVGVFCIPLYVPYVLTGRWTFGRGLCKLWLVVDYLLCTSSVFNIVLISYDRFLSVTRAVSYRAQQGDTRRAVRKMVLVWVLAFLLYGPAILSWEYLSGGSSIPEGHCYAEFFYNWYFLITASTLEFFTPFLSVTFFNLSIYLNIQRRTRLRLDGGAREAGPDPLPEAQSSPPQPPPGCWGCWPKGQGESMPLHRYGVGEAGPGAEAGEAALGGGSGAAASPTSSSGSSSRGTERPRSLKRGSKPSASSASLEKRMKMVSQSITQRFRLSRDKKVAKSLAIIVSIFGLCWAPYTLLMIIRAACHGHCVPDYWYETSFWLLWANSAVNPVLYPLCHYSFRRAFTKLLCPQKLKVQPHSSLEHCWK

Ki (Histamine H4 receptor)	Ki (Histamine H2 receptor)	Ki (Histamine receptor H3)	Ki (Hrh3 protein)	SMILES	Ki (Histamine H3 receptor [1])	Ki (Histamine H1 receptor)	Ki (Histamine H3 receptor [2])
> 10000 nM	> 10000 nM	1.2 nM	1.66 nM and 1.45 nM	C[C@@H]1CC[C@@H](C)N1CCCOc1ccc(-c2ccc(C(=O)N3CCOCC3)cc2)cc1 [(4'-(3-((2R,5R)-2,5-dimethylpyrrolidin-1-yl)propoxy)biphenyl-4-yl)(morpholino)methanone]	0.41 nM and 0.43 nM	–	0.55 nM
> 10000 nM	6760 nM	3.89 nM	1.23 nM and 3.24 nM	C[C@@H]1CCCN1CCc1cc2cc(-c3ccc(C#N)cc3)ccc2o1 [(R)-4-(2-(2-(2-methylpyrrolidin-1-yl)ethyl)benzofuran-5-yl)benzonitrile]	–	1620 nM	–

SMILES	Ki (Histamine H4 receptor)	Ki (Histamine H2 receptor)	Ki (Histamine receptor H3)	Ki (Hrh3 protein)	Ki (Histamine H3 receptor [1])	Ki (Histamine H1 receptor)	Ki (Histamine H3 receptor [2])
CC(C)(C)CCC#C[C@@H]1C[C@H]1c1c[nH]cn1	51.3 nM	> 10000 nM	1.32 nM	0.11 nM and 0.25 nM	5.25 nM and 12.3 nM	> 10000 nM	0.63 nM
